Measured values reported in patent publication US5688773A, “Method of selectively destroying neoplastic cells” (priority 1994, dated 1997).
Values joined by “and” are separate entries in the source; they are usually repeats but may differ in a detail not shown here. Equal entries are not always repeated. Where two headings read alike, the source gives them in different places.

Key:
C6BAG cells alone = assay: GCV treatment of subcutaneous tumors; assay type: in vivo, nude mice; settings: subcutaneous inoculation
C6VIKWT cells = assay: Ganciclovir sensitivity, cell proliferation assay; assay type: cell-based; settings: Rattus norvegicus, 96 h; four-day period; read-out: Fifty percent inhibition of growth
Experimental: (§1) Ganciclovir Sensitivity Assays in Culture: To measure the sensitivity of isolated cells, cells were plated in 24-well plates at a density of 10^4 cells per well. The next day, medium was replaced with medium containing ganciclovir (Cytovene, Burroughs Wellcome) at varying concentrations (0-1 μM) in quadruplicate. Four days later, cells were harvested using trypsin and counted using a cell counter (Coulter Electronics Ltd., Luton, United Kingdom). Cell growth is expressed as the percentage of cells compared to the number of cells without treatment (100%).

C6VIK cells = assay: Ganciclovir sensitivity, cell proliferation assay; assay type: cell-based; settings: Rattus norvegicus, 96 h; four-day period; read-out: Fifty percent inhibition of growth
Experimental: as §1

[1] = test system: C6 glioma cells and other cells infected with this retrovirus; settings: cell culture; cited from earlier work
C6BAG and C6VIKWT cells = assay: Ganciclovir treatment of combined subcutaneous tumors; assay type: in vivo, nude mice
Experimental: Sequential injections of 10^5 C6BAG cells followed immediately by 10^6 C6BU1 cells, C6VIK cells, or C6VIKWT cells at the same injection site, were carried out as above using 20 animals for each combination. […] Tumor volume was assessed as the percentage increase over the volume at the beginning of treatment through 17 days.

[2] = test system: C6 cells co-cultured with C6-P450 cells; assay: Co-culture assay (cell-mediated effect); assay type: cell-based, rat; settings: 0.5 mM CPA; for inhibition at 500 µM: Rattus norvegicus, C6, 96 h, 4 days, read-out: decrease in the proliferation of C6 cells
Experimental: Co-culture assay: Co-cultures of C6-P450 and C6 cells were incubated in triplicate at different ratios (where 0, 10, 50, 90, and 100% of the cells were C6-P450 cells) to achieve a total number of 2×10^6 cells/10 cm dish. After 24 hours, 0.5 mM CPA was added and four days later, cells were counted as previously described. To compare the killing achieved by cell contact with that obtained by exposure to conditioned medium, the supernatant from each co-culture was harvested, filtered through 0.45 μm membrane filters, mixed in a 1:1 ratio with 5 mL of fresh medium and added to overnight cultures of C6 cells (2×10^6 cells/10 cm dish in triplicate). Four days later, C6 cells were washed, harvested and counted. To determine the specificity of the cell-mediated killing effect from the co-culture assays, C6 cells were incubated overnight with C6 cells that expressed the neomycin phosphotransferase gene (C6-Neo), with irradiated C6 cells, with irradiated C6-Neo, and with irradiated C6-P450 cells. γ-irradiation was performed by exposing cells to a total of 6000 rads emitted by a ^51 chromium source.

[3] = test system: C6 glioma plus CRELacZ cells; assay: Brain tumor model, fibroblast graft then intrathecal/intratumoral CPA; assay type: in vivo, athymic mice
Experimental: (§2) For intracerebral injections, mice were anesthetized with an intraperitoneal injection of Ketamin (100 mg per kg body weight) (Parke Davis, NJ) and Xylazine (20 mg per kg body weight) (Mobay Corp., KS). Surgical procedures were performed in a sterile fashion. After immobilizing the rodent in stereotactic apparatus (Kopf), a small incision was made in the skin overlying the skull. C6 glioma cells (10^3 cells in 2 μl) were stereotactically inoculated approximately 0.5 mm frontal and 0.5 mm right lateral to the bregma using a Hamilton syringe. The inoculation period was 5 minutes, with 2 minutes allowed for needle retraction. Three days later, the same burrhole was employed for the stereotactic grafting of 5×10^6 CRELacZ cells (cell line kindly provided by Dr. R. Mulligan, MIT) or 5×10^6 R450-2 cells in 25 μl of DMEM. Four, eight, and eleven days after this last injection, CPA (0.3 mg in 5 μl) was administered stereotactically, through the same skull opening, into the tumor and meningeal space of mice from both CRELacZ and R450-2 groups. Injections were carried out stereotactically over a period of ten minutes, with five minutes allowed for needle retraction. Animals were sacrificed, ten days after injection of the last dose of prodrug, by perfusing through the left ventricle approximately 3-5 mL of 100 mM sodium phosphate in 0.9% sodium chloride, pH 7.3, followed by 4% paraformaldehyde in 100 mM sodium phosphate, pH 7.3. Brains were carefully dissected from the skull and jaws of the animals, prior to placement overnight in 4% paraformaldehyde in 100 mM sodium phosphate, pH 7.3. For cryopreservation, brains were placed in 20% glycerol/10% dimethylsulfoxide in 100 mM sodium phosphate, pH 7.3, and then cut in 50 micron sections with a sledge microtome. Every sixth section was mounted onto gelatin-coated slides and stained with cresyl violet. To calculate brain tumor volumes, a computerized-image analyzer was used to scan tumor areas on each section. This analysis was performed in a blind fashion. Manual contouring was performed to distinguish tumor from normal brain cysts, or processing artifacts. Tumor volumes were obtained by multiplying the average tumor area from all sections in a brain by the distance (0.3 mm) between and including each section.

[4] = test system: C6 glioma plus R450-2 cells; assay: as above; assay type: in vivo, athymic mice
Experimental: as §2

CNEO-1 cells = assay: Cyclophosphamide dose-response assay; assay type: cell-based; settings: Rattus norvegicus, C6 glioma; up to 1 mM CPA; read-out: cells that survived incubation
Experimental: Two days later CPA was added to final concentrations of 0-100 μM. Five days after plating, the monolayers were rinsed twice with Hank's buffered saline (GIBCO) to remove dead cells. Monolayers were dispersed using trypsin-EDTA (GIBCO), and cell numbers were determined using a Coulter counter (Coulter Electronics Inc.).

[5] = test system: cytochrome P450 2B1-negative cells (parental 9L and 9L-Z); assay: Drug sensitivity of cultured 9L cells; assay type: cell-based, rat; settings: millimolar concentrations
Experimental: To test for drug sensitivity, 1×10^5 cells were plated in 30-mm tissue culture plates (Falcon 3046) in duplicate. Drugs were added 18-24 hours after seeding. Cells were allowed to grow for times ranging up to 5 days after drug treatment, and the final cell number was then determined. Cells were rinsed with phosphate buffered saline or Hank's buffered saline, dispersed using trypsin-EDTA (GIBCO/BRL, Inc.), and then counted with a hemocytometer. Results are expressed as a growth ratio, i.e., the number of cells in plates containing drug as a percentage of the corresponding drug-free controls (mean±range of duplicate determinations).

[6] = CPA 0.3 mg on days 4, 8, 11 after graft, sacrifice ten days after last dose
[7] = individual animals, after cyclophosphamide administration

SMILES | Tumor regression (C6BAG cells alone) | IC50 (C6VIKWT cells) [nM] | IC50 (C6VIK cells) [nM] | fold lower ganciclovir concentration killing infected vs uninfected cells [1] [fold] | Tumor size compared to C6BAG and C6BU1 tumors (C6BAG and C6VIKWT cells; 14 day course, 25 mg/kg twice a day intraperitoneally) | Tumor regression (C6BAG and C6VIKWT cells; C6VIK-WT and C6BAG inoculated simultaneously, GCV treatment) | Inhibition of proliferation of remaining C6 cells ([2]; 90% C6-P450 cells, four days) | inhibition at 500 µM ([2]; 10% of cells express the P450 gene) [%] | inhibition at 500 µM ([2]; 50% of cells contain the P450 gene) [%] | animals with extensive and friable meningeal tumor [3, 6] | Tumor necrosis of parenchymal tumors ([3]; histopathology of six brains) | Volumes of parenchymal brain tumors [3, 7] | animals with a small residual meningeal mass ([4]; CPA 0.3 mg on days 4, 8, 11 after graft) | animals with no evidence of meningeal tumor [4, 6] | brains with extensive tumor necrosis ([4]; histopathology of six brains) | Volumes of parenchymal brain tumors [4, 7] | brain tumor volume as fraction of average volume in lacZ-producer controls ([4]; three of six animals, listed as CPA) | viability at 1000 µM (CNEO-1 cells) [%] | Effects on growth [5]
Nc1nc(O)c2ncn(COC(CO)CO)c2n1 [ganciclovir] | not with C6BAG cells alone | 0.3 | 10 | 100 | even greater decrease in the size | regression of tumors in most nude mice |  |  |  |  |  |  |  |  |  |  |  |  | 
O=P1(N(CCCl)CCCl)NCCCO1 (stereo not shown) [cyclophosphamide] |  |  |  |  |  |  | complete inhibition | 75 | ~85 | 8/8 | essentially no tumor necrosis | 47.5 mm^3 and 51.5 mm^3 and 54.7 mm^3 and 62.4 mm^3 and 72.6 mm^3 and 85.1 mm^3 | 1/8 | 7/8 | 3/6 | 3.2 mm^3 and 14.2 mm^3 and 28.4 mm^3 and 87.4 mm^3 and 105.3 mm^3 and 171.4 mm^3 | approximately 1/20 and 1/5 and 1/2 | ≥ 80 | no adverse effects
